The values below come from patent US20230145305A1, “COMPOUNDS USEFUL AS KINASE INHIBITORS” (Fochon Biosciences, Ltd., priority 2020, published 2023).

The experiment has as its system OCI-LY10 cells. Put plainly: Cell proliferation assay (MTS) in OCI-LY10 cells. It is filed as cell-based. As to conditions: Homo sapiens. The text has this:
MTS testing kit was purchased from Promega (Madison, Wis., USA). The RPMI-1640, Fetal bovine serum and Penicillin-Streptomycin were purchased from BI (Biological Industries, Beit Haemek, Israel). Dimethyl sulfoxide (DMSO) was purchased from Sigma (St. Louis., Mo., USA). […] To investigate whether a compound is able to inhibit the activity of BTK in cells, a mechanism-based assay using OCI-LY10 cells was developed. In this assay, inhibition of BTK was detected by the inhibition of OCI-LY10 cells proliferation. Cells were plated into 96-well plates at a density of 10000 cells/well. Plates were incubated at 37° C., with 5% CO2 for 4 h. […] Plates were incubated at 37° C., with 5% CO2 for 72 h. 20 μl MTS was added into each well and the plates were incubated at 37° C., with 5% CO2 for exactly 2 h. The absorbance was measured by a microplate reader at 490 nm. IC50 was calculated using GraphPad Prism 5.0 software. Select compounds prepared as described above were assayed according to the biological procedures described herein.

The mark [1] stands for this setting: inhibition of OCI-LY10 cells proliferation, 72 h incubation, MTS, absorbance at 490 nm, read-out: OCI-LY10 IC50.

Read-outs that look alike come from different tables or passages of the source.

As usually defined, the IC50 is the concentration that inhibits the measured activity by half. Consider `COc1ccc(F)cc1C(=O)NCc1ccc(-n2nc(C3CCCC3(F)F)c3c(=O)[nH]nc(N)c32)cc1` (stereo not drawn) [Example 90, N-(4-(7-amino-3-(2,2-difluorocyclopentyl)-4-oxo-4,5-dihydro-1H-pyrazolo [3,4-d]pyridazin-1-yl)benzyl)-5-fluoro-2-methoxybenzamide], for which the IC50 under setting [1] turned out to be 15 nM.

Consider `COc1ccc(F)cc1C(=O)NCc1ccc(-c2nn(C3(C(F)(F)F)CC3)c3c(=O)[nH]nc(N)c23)cc1` [Example 87, N-(4-(4-amino-7-oxo-1-(1-(trifluoromethyl)cyclopropyl)-6,7-dihydro-1H-pyrazolo [3,4-d]pyridazin-3-yl)benzyl)-5-fluoro-2-methoxybenzamide], for which the IC50 under setting [1] was determined as 4 nM.

`COc1ccc(F)cc1C(=O)NCc1ccc(-c2nn([C@H](C)C3CC3)c3c(=O)[nH]nc(N)c23)cc1` [Example 77a, (R)-N-(4-(4-amino-1-(1-cyclopropylethyl)-7-oxo-6,7-dihydro-1H-pyrazolo[3,4-d]pyridazin-3-yl)benzyl)-5-fluoro-2-methoxybenzamide]: the IC50 under setting [1] was found to be 1 nM.

On to `COc1ccc(F)cc1C(=O)NCc1ccc(-c2nn(C3(C)CC3)c3c(=O)[nH]nc(N)c23)cc1` [Example 74, N-(4-(4-amino-1-(1-methylcyclopropyl)-7-oxo-6,7-dihydro-1H-pyrazolo[3,4-d]pyridazin-3-yl)benzyl)-5-fluoro-2-methoxybenzamide], for which the IC50 under setting [1] came to 1 nM.

Regarding `COc1ccc(F)cc1C(=O)NCc1ccc(-c2cn([C@@H]3CCN(C(=O)OC(C)C)C3)c3c(=O)[nH]nc(N)c23)cc1` [Example 105, isopropyl (R)-3-(4-amino-3-(4-((5-fluoro-2-methoxybenzamido)methyl)phenyl)-7-oxo-6,7-dihydro-1H-pyrrolo[2,3-d]pyridazin-1-yl)pyrrolidine-1-carboxylate], under setting [1], the IC50 came to 4 nM.

`COc1ccc(F)cc1C(=O)NCc1ccc(-c2nn([C@@H](CF)C3CC3)c3c(=O)[nH]nc(N)c23)cc1` [Example 88, (R)-N-(4-(4-amino-1-(1-cyclopropyl-2-fluoroethyl)-7-oxo-6,7-dihydro-1H-pyrazolo[3,4-d]pyridazin-3-yl)benzyl)-5-fluoro-2-methoxybenzamide]: the IC50 under setting [1] was found to be 1 nM.

With `COc1ccc(F)cc1C(=O)NCc1ccc(-c2cn(C3CCCC3)c3c(=O)[nH]nc(N)c23)cn1` [Example 45, N-((5-(4-amino-1-cyclopentyl-7-oxo-6,7-dihydro-1H-pyrrolo[2,3-d]pyridazin-3-yl)pyridin-2-yl)methyl)-5-fluoro-2-methoxybenzamide], the IC50 under setting [1] was 32 nM.

With `COc1ccc(F)cc1C(=O)NCc1ccc(-n2nc(C3CCCC3)c3ccnc(N)c32)cc1` [Example 14, N-(4-(7-amino-3-cyclopentyl-1H-pyrazolo [3,4-c]pyridin-1-yl)benzyl)-5-fluoro-2-methoxybenzamide], the IC50 under setting [1] worked out at 85 nM.

In the case of `COc1ccc(F)cc1C(=O)NCc1ccc(-c2nn(C(C)(C)C(F)F)c3c(=O)[nH]nc(N)c23)cc1` [Example 85, N-(4-(4-amino-1-(1,1-difluoro-2-methylpropan-2-yl)-7-oxo-6,7-dihydro-1H-pyrazolo[3,4-d]pyridazin-3-yl)benzyl)-5-fluoro-2-methoxybenzamide], the half-maximal inhibitory concentration (IC50) under setting [1] came out at 18 nM.

For `COc1ccc(F)cc1C(=O)NCc1ccc(-c2cn([C@@H]3CCN(C(=O)C4CC4)C3)c3c(=O)[nH]nc(N)c23)cc1` [Example 48, (R)-N-(4-(4-amino-1-(1-(cyclopropanecarbonyl)pyrrolidin-3-yl)-7-oxo-6,7-dihydro-1H-pyrrolo[2,3-d]pyridazin-3-yl)benzyl)-5-fluoro-2-methoxybenzamide], under setting [1], the IC50 turned out to be 48 nM.

As to `COc1ccc(F)cc1C(=O)NCc1ccc(-c2cn(C(C)C(F)(F)F)c3c(=O)[nH]nc(N)c23)cc1F` (stereo not drawn) [Example 53, N-(4-(4-amino-7-oxo-1-(1,1,1-trifluoropropan-2-yl)-6,7-dihydro-1H-pyrrolo[2,3-d]pyridazin-3-yl)-2-fluorobenzyl)-5-fluoro-2-methoxybenzamide], under setting [1], the IC50 is 3 nM.

As to `COc1ccc(F)cc1C(=O)NCc1ccc(-c2cn([C@@H]3C[C@@H]3F)c3c(=O)[nH]nc(N)c23)cc1` [Example 57, N-(4-(4-amino-1-((1R,2S)-2-fluorocyclopropyl)-7-oxo-6,7-dihydro-1H-pyrrolo[2,3-d]pyridazin-3-yl)benzyl)-5-fluoro-2-methoxybenzamide], the IC50 under setting [1] came out at 24 nM.

For the compound `COc1ccc(F)cc1C(=O)NCc1ccc(-c2nn([C@@H](C)C3CC3)c3c(=O)[nH]nc(N)c23)cc1` [Example 77b, (S)-N-(4-(4-amino-1-(1-cyclopropylethyl)-7-oxo-6,7-dihydro-1H-pyrazolo[3,4-d]pyridazin-3-yl)benzyl)-5-fluoro-2-methoxybenzamide], the IC50 under setting [1] is 1 nM.

As to `COc1ccc(F)cc1C(=O)NCc1ccc(-c2nc(C3CCCC3)n3ncnc(N)c23)cc1` [Example 12, N-(4-(4-amino-7-cyclopentylimidazo [5,1-f][1,2,4]triazin-5-yl)benzyl)-5-fluoro-2-methoxybenzamide], the IC50 (OCI-Ly10, 72 h, read-out: OCI-LY10 IC50 (nM)) stood at 9 nM.

Consider `COc1ccc(F)cc1C(=O)NCc1ccc(-c2cn(C3CC3)c3c(=O)[nH]nc(N)c23)cc1` [Example 34, N-(4-(4-amino-1-cyclopropyl-7-oxo-6,7-dihydro-1H-pyrrolo[2,3-d]pyridazin-3-yl)benzyl)-5-fluoro-2-methoxybenzamide], for which, under setting [1], the IC50 turned out to be 4 nM.

For the compound `COc1ccc(F)cc1C(=O)NCc1ccc(-c2cn(C3CC(F)(F)C3)c3c(=O)[nH]nc(N)c23)cc1F` [Example 56, N-(4-(4-amino-1-(3,3-difluorocyclobutyl)-7-oxo-6,7-dihydro-1H-pyrrolo[2,3-d]pyridazin-3-yl)-2-fluorobenzyl)-5-fluoro-2-methoxybenzamide], under setting [1], the IC50 amounted to 3 nM.

For the compound `COc1ccc(F)cc1C(=O)NCc1ccc(-c2cn(C3CCCC3)c3c(=O)[nH]nc(N)c23)cc1F` [Example 30, N-(4-(4-amino-1-cyclopentyl-7-oxo-6,7-dihydro-1H-pyrrolo[2,3-d]pyridazin-3-yl)-2-fluorobenzyl)-5-fluoro-2-methoxybenzamide], the IC50 under setting [1] amounted to 1 nM.

For `COc1ncc(F)cc1C(=O)NCc1ccc(-c2cn(C3CCCC3)c3c(=O)[nH]nc(N)c23)cc1` [Example 71, N-(4-(4-amino-1-cyclopentyl-7-oxo-6,7-dihydro-1H-pyrrolo[2,3-d]pyridazin-3-yl)benzyl)-5-fluoro-2-methoxynicotinamide], the IC50 under setting [1] worked out at 23 nM.

Consider `COc1ccc(F)cc1C(=O)NCc1ccc(-n2nc(C3CCCO3)c3c(=O)[nH]nc(N)c32)cc1` (stereo not drawn) [Example 86, N-(4-(7-amino-4-oxo-3-(tetrahydrofuran-2-yl)-4,5-dihydro-1H-pyrazolo[3,4-d]pyridazin-1-yl)benzyl)-5-fluoro-2-methoxybenzamide], for which the IC50 under setting [1] turned out to be 90 nM.

In the case of `COc1ccc(F)cc1C(=O)NCc1ccc(-c2cn(C3CCCC3(C)O)c3c(=O)[nH]nc(N)c23)cc1` (stereo not drawn) [Example 38, N-(4-(4-amino-1-(2-hydroxy-2-methylcyclopentyl)-7-oxo-6,7-dihydro-1H-pyrrolo[2,3-d]pyridazin-3-yl)benzyl)-5-fluoro-2-methoxybenzamide], under setting [1], the IC50 is 35 nM.

With `CCC(C)n1nc(-c2ccc(CNC(=O)c3cc(F)ccc3OC)cc2)c2c(N)n[nH]c(=O)c21` (stereo not drawn) [Example 67, N-(4-(4-amino-1-(sec-butyl)-7-oxo-6,7-dihydro-1H-pyrazolo[3,4-d]pyridazin-3-yl)benzyl)-5-fluoro-2-methoxybenzamide], the IC50 under setting [1] was 1 nM.
